Data from patent US10925854B2, “Methods and compositions for preventing or treating fatty liver, protecting liver function or ameliorating liver diseases caused by fatty liver or other associated disorders” (SINEW PHARMA INC., priority 2015, dated 2021).

How the values were obtained:
[1] = test system: B6 mice fed with high fat feed (fatty liver); assay: Serum ALT and AST (liver dysfunction) in mice with induced fatty liver; format: in vivo
Experimental: (§1) B6 mice recommended in the specification “Method for evaluating the liver protection and health care efficacies of health food” announced by the Department of Health were chosen for animal testing. More than four (4) mice were used in each group of the pre-test, while more than twelve (12) mice were used in each group of the confirmatory test. Male mice bred at 23±2° C. in an animal room with 55±15% relative humidity under normal light/dark cycle (7:00 AM-7:00 PM lights on/7:00 PM-7:00 AM lights off) and weighing 18-23 g were purchased from BioLASCO (Taipei) and housed at Laboratory Animal Center in National Defense Medical Center. The animal test was carried out according to the guideline for animal experiment of National Health Research Institutes. Mice were fed with normal feed at 3-5 g/day and unlimited supply of water for 1-2 weeks and investigated for health condition. The weight of mice was recorded once a week.
(§2) The tested animals were grouped randomly into Blank, High Fat Diet control (HFD), Positive Control (PS), and Test group. The animals of Blank were fed with normal feed. The animals of HFD were fed with high fat feed. The animals of PS were fed with high fat feed, and additionally fed with silymarin (5 mg/kg/day) by a tube. The animals of Test group were fed with high fat feed, and additionally force-fed with test compounds by a tube.
(§3) The animals of Blank were fed casually with normal feed for 12 weeks, while the animals of HFD, PS, and Test group were fed casually with high fat feed for 12 weeks. After 8 weeks of feeding, the animals of Blank and HFD were fed with deionized water by a tube once a day; the animals of PS were fed with silymarin by a tube once a day; and the animals of Test Group were fed with test compounds by a tube once a day for a duration of 4 or 8 weeks.
Before testing and in the eighth (8th), twelfth (12th), and sixteenth (16th) week after testing, blood was collected from the cheek or the heart. At the end of testing, all mice were weighted and then sacrificed, and blood was collected from the cheek or the heart simultaneously. The blood specimens of mice was placed at room temperature for one hour to clot, and then the serum was separated by centrifugation in a refrigeration centrifuge at 15,700×g at 4° C. for 5 minutes. Afterwards, biochemical indices of liver function, including aspartate transaminase (AST), alanine aminotransferase (ALT), triglyceride (TG), total cholesterol (TCHO/TC), low-density lipoprotein cholesterol (LDL-C), and high-density lipoprotein cholesterol (HDL-C), were detected by the automatic blood biochemistry analyzer.

[2] = test system: B6 mice fed with high fat feed (fatty liver); assay: Liver lipids (TG, TC in liver) in mice with induced fatty liver; format: in vivo
Experimental: as §1, §2, §3
In addition, abdominal fat and liver specimens were taken from the abdomens of sacrificed mice and weighted to compare the weight of fat and liver and obtain a ratio of liver weight to body weight. Two tissue blocks with a volume of approximately 1 cm^3 were cut from the largest right lobe of liver, fixed in 10% neutral formalin solution, and then embedded with paraffin for sectioning and H&E staining for histopathological observation. Moreover, the rest of the liver was frozen for preservation and detection of the contents of triglyceride and total cholesterol in the liver. Furthermore, the liver function of animals of each group were analyzed by Galactose Single Point Method, which was recognized and recommended for quantification of remaining liver function in clinical use by U.S. FDA and Ministry of Health and Welfare, Taiwan. At the end of the tests, 0.5 g of galactose (G.S.P.® 0.4 g/mL) per kg of animal was administered via intravenous. One hour after the administration, about 0.5 ml of whole blood was taken by using a filter paper to evaluate liver function of mice. The higher the value of GSP was, the worse the remaining liver function would be (FDA: “Guidance for Industry: Pharmacokinetics in Patients with Impaired. Hepatic Function—Study Design, Data Analysis and Impact on Dosing and. Labeling. 2003).

[3] = test system: B6 mice fed with high fat feed (fatty liver); assay: Liver antioxidant capacity (Gpx, GSH, Grd, SOD) in mice with induced fatty liver; format: in vivo; details: for effect on liver antioxidant activity (in words): fatty liver mice
Experimental: as §1, §2, §3
About 0.1 g of liver tissue was taken from the sacrificed animal and homogenized by centrifuge with a biomasher for 10 minutes. A 9-fold weight (w/w) of buffer (pH 7.4, 50 mmol/L Tris-HCl, 180 mmol/L KCl) was added to the homogenized tissue, which was then mixed well by a Vortex mixer for subsequent use. The resulting homogenization solution samples of liver tissue was used for the analysis of various members of liver antioxidant systems, including glutathione peroxidase (GPx), glutathione (GSH), glutathione reductase (Grd), and superoxide dismutase (SOD). Methods of related analysis can be found in the known literatures, for example, the draft of “Method for evaluating the liver protection and health care efficacies of health food” announced by the Ministry of Health and Welfare, Taiwan.

[4] = test system: HepG2 fatty liver cells (induced with oleic acid); assay: Reduction of TG content in oleic acid-induced HepG2 fatty liver cells; format: cell-based, human; details: Homo sapiens, 72 h; tested substances 1.0 uM, fatty liver cells from HepG2; read-out: TG reduction rate
Experimental: The activity of the various compounds of the present invention in reduction of fat content was analyzed by using human hepatoma cell line Hep G2.
HepG2 cell lines (15×10^6 cells) were cultured in DMEM culture No. B, incubated in an incubator with 5% CO2 at 37° C. for 24 hours, cultured in DMEM culture No. C (serum-free medium) for 24 hours, and finally cultured in DMEM culture No. D (containing oleate/albumin complex) for another 48 hours to induce HepG2 cell lines to form fatty liver cells.
HepG2 cell lines were divided into six groups, including: (1) Blank: no treatment; (2) DMSO group: cells from Blank were treated with dimethyl sulfoxide (DMSO); (3) Control: induction with oleic acid to form fatty liver cells; (4) Vehicle group: fatty liver cells formed by induction with oleic acid were treated with DMSO; (5) Positive control: fatty liver cells were treated with silymarin; and (6) Test Group: fatty liver cells were treated with various compounds of the present invention.
After incubation for 72 hours, the treated cells from each group were successively washed twice with PBS, and then incubated with 0.5 ml of trypsin/EDTA for 3 minutes. Afterwards, the cells were scraped with 2 ml of PBS and then transferred to the centrifuge tube to be shattered by ultrasonic. 20 μl of the cell extracts was taken to determine the content of protein. TG determination was performed using commercially available combination of agents (Randox). The TG content obtained above was divided by the protein content to obtain a ratio, representing a relative TG content in the cells.
The equation for calculating reduction rate (%) of TG was as follows: [1−(TG content of Test Group−TG content of Blank)/(TG content of Oleic acid induction Group−TG content of Blank)]×100%.

[5] = test system: B6 mice fed with high fat feed (fatty liver); assay: Liver histopathology (H&E) and NAS score in mice with induced fatty liver; format: in vivo; details: for large vesicular fat droplets within liver cells in liver tissue section: H&E sections, treatment for 4 weeks (FIG. 1); for effect on liver damages (NAS, in words): fatty liver mice
Experimental: as §1, §2, §3
At the end of the test, all mice were sacrificed. One tissue block with a volume of approximately 1 cm^3 was cut from the largest right lobe of liver, fixed in 10% neutral formalin, and then dehydrated and hyalinized in various concentrations of ethanol (30, 50, 70, 95, 99.5%) and xylene. Afterwards, xylene was replaced with hot paraffin solution. At last, the tissue was embedded with paraffin solution. The finished paraffin specimen was cut into 5 pun-thickness paraffin sections by the microtome. The sections were pasted on clean slides, dried at 37° C., and then stained by H&E staining.
Liver tissue sections were deparaffinized in xylene for 30 minutes, and then successively rehydrated in 99.5%, 95%, 70%, 50%, and 30% ethanol for 30 minutes, respectively. After being soaked in distilled water for 10 minutes, the sections could be stained. The sections were first immersed in hematoxylin for 30 seconds to stain cell nuclei, then washed with distilled water for a few minutes, stained with eosin for 2-5 minutes, and washed with distilled water for a few minutes again. […]
In order to observe the changes of lesion, fat accumulation, necrosis, or fibrosis in liver cells when there was an ongoing liver damage, liver tissues were H&E stained to evaluate the degree of liver fat accumulation. […] As for the assessment of semi-quantitative analysis in pathology, it had to be confirmed by a physician or a veterinary pathologist who conducted a double-blind analysis to score (NAS score)^16 and compare all the sections without knowing the test design. […]

[6] = Abdominal fat weight, liver weight and increase of body weight in high fat feed mice; format: in vivo, B6 mice; details: fatty liver mice
Experimental: as §1, §2
The animals of Blank were fed casually with normal feed for 12 weeks, while the animals of HFD, PS, and Test group were fed casually with high fat feed for 12 weeks. […]
In addition, abdominal fat and liver specimens were taken from the abdomens of sacrificed mice and weighted to compare the weight of fat and liver and obtain a ratio of liver weight to body weight. […] Furthermore, the liver function of animals of each group were analyzed by Galactose Single Point Method, which was recognized and recommended for quantification of remaining liver function in clinical use by U.S. FDA and Ministry of Health and Welfare, Taiwan. […]

SMILES	effect on ALT and AST values (in words) [1]	effect on TG in liver (in words) [2]	effect on liver antioxidant activity (in words) [3]	inhibition at 1 µM [4]	large vesicular fat droplets within liver cells in liver tissue section [5]	effect on TC in liver (in words) [2]	effect on weight of abdominal fat (in words) [6]	effect on liver damages (NAS, in words) [5]	Gpx, GSH, Grd, and SOD levels (in words) ([3]; 4-week treatment)
O=c1c(-c2ccc(O)cc2)coc2c([C@@H]3O[C@H](CO)[C@@H](O)[C@H](O)[C@H]3O)c(O)ccc12 [puerarin]	can significantly reduce ALT and AST values	reduces TG in liver significantly	can significantly enhance antioxidant activity	49.9 ± 7.73%					
CC1CCC(C(C)C)C(O)C1 (stereo not drawn) [menthol]	can significantly reduce ALT and AST values	reduces TG in liver significantly		66.2 ± 1.87%	significantly reduced	reduces TC in liver significantly	reduces the weight of abdominal fat in animals significantly		
OC[C@H]1O[C@H](O[C@]2(CCl)O[C@H](CCl)[C@@H](O)[C@@H]2O)[C@H](O)[C@@H](O)[C@H]1Cl [sucralose]	can significantly reduce ALT and AST values	reduces TG in liver significantly		26.7 ± 2.93%		reduces TC in liver significantly	reduces the weight of abdominal fat in animals significantly		
OC[C@@H](O)[C@@H](O)[C@H](O)[C@H](O)CO [mannitol]	can significantly reduce ALT and AST values	reduces TG in liver significantly	can significantly enhance antioxidant activity	22.4 ± 5.74%	significantly reduced	reduces TC in liver significantly	reduces the weight of abdominal fat in animals significantly	can significantly reduce liver damages	substantial increases
O=C1NS(=O)(=O)c2ccccc21 [saccharin]	can significantly reduce ALT and AST values			17.5 ± 6.96%		reduces TC in liver significantly			
O=C1C[C@@H](c2ccc(O)c(O)c2)Oc2cc(O)cc(O)c21 [eriodictyol]	can significantly reduce ALT and AST values	reduces TG in liver significantly	can significantly enhance antioxidant activity	35.1 ± 0.87%	significantly reduced	reduces TC in liver significantly		can significantly reduce liver damages	
COc1ccc([C@@H]2CC(=O)c3c(O)cc(O)cc3O2)cc1O [hesperitin]	can significantly reduce ALT and AST values	reduces TG in liver significantly	can significantly enhance antioxidant activity	16.1 ± 5.55%		reduces TC in liver significantly			
